System: murine splenocytes
Assay: Test of lymphocyte proliferation: proliferation of murine splenocytes (tritiated thymidine incorporation)
Assay type: cell-based, Bal b/c mice
Conditions: for Proliferation of murine splenocytes, mitogen Con A 2.5 μg/ml (cpm ± DS) / Proliferation of murine splenocytes, mitogen LPS 10 μg/ml (cpm ± DS) / Proliferation of murine splenocytes, mitogen PHA 50 μg/ml (cpm ± DS) / Proliferation of murine splenocytes, mitogen a CD3 20 μg/ml (cpm ± DS): 72 h incubation
Experimental: Proliferation of Murine Splenocytes. Material and Methods
Test of Lymphocyte Proliferation
Culture medium: DMEM+penicillin 50 UI/ml+streptomycin 50 µg/ml+glutamine 2 mM+10% foetal calf serum (complete medium) (FLOW).
Bal b/c mice were used, male, aged 6-8 weeks (IFFA-CREDO).
The cell “pellet” is resuspended in complete medium at a concentration of 4×10^6 cells/ml
In a dish with 96 flat-bottom wells, seriated dilutions are made of the mitogen problem sample with or without “lactone” in a volume of […] in complete medium to which […] 2ME have been added. All the determinations are made in triplicate.
100 μl of the cell suspension are then added, leaving a final volume of 200 μl.
The dish is incubated in a stove at 37° C., 5% CO2 for 66 h.
Following that incubation period, 1 μCi of tritiated thymidine is added to each well.
The dish is again incubated for 6 h.
Once that new incubation period has ended, the dish is processed in a Skatron Harvester, using special Wathman filter paper for this.
The cpm are determined in a liquid scintillation counter.
Negative control: cells in the presence of complete culture medium.
Positive control: cells in the presence of some mitogen.
Arithmetic mean of cpm±standard deviation (1)
The statistical significance is determined by the Student t method.
The results are summarised in the following tables (the cpm are stated following a pulse of tritiated thymidine. The samples of splenocytes were cultivated for 72 h in the presence of mitogen and lactone at the stated concentrations).

[1] = murine splenocytes, 72 h with mitogen and lactone

Q: What does the source list for C=C1C(=O)OC(CCc2ccc(OC)cc2)C1C (centres unmarked) [lactone]?
A: Proliferation of murine splenocytes, mitogen Con A 2.5 μg/ml (cpm ± DS) (Lactone 0.75 μg/ml): 131,523 cpm; Proliferation of murine splenocytes, mitogen Con A 2.5 μg/ml (cpm ± DS) (Lactone 1.5 μg/ml): 150,400 cpm; Proliferation of murine splenocytes, mitogen Con A 2.5 μg/ml (cpm ± DS) (Lactone 3 μg/ml): 92,600 ± 100 cpm; Proliferation of murine splenocytes, mitogen Con A 2.5 μg/ml (cpm ± DS) (Lactone 6 μg/ml): 78,200 ± 725 cpm; Proliferation of murine splenocytes, mitogen Con A 2.5 μg/ml (cpm ± DS) (Lactone 12 μg/ml): 370 ± 20 cpm; Proliferation of murine splenocytes, mitogen Con A 2.5 μg/ml (cpm ± DS) (Lactone 25 μg/ml): 244 ± 15 cpm; Proliferation of murine splenocytes, mitogen LPS 10 μg/ml (cpm ± DS) (Lactone 25 μg/ml): 3,200 ± 400 cpm; Proliferation of murine splenocytes, mitogen PHA 50 μg/ml (cpm ± DS) (Lactone 25 μg/ml): 21,000 cpm; Proliferation of murine splenocytes, mitogen a CD3 20 μg/ml (cpm ± DS) (Lactone 25 μg/ml): 5,600 ± 300 cpm; Proliferation of murine splenocytes, mitogen Con A 2.5 μg/ml (cpm ± DS) (Lactone 50 μg/ml): 190 ± 10 cpm; Proliferation of murine splenocytes, mitogen LPS 10 μg/ml (cpm ± DS) (Lactone 50 μg/ml): 2,700 ± 120 cpm; Proliferation of murine splenocytes, mitogen PHA 50 μg/ml (cpm ± DS) (Lactone 50 μg/ml): 19,000 cpm; Proliferation of murine splenocytes, mitogen a CD3 20 μg/ml (cpm ± DS) (Lactone 50 μg/ml): 1,235 ± 200 cpm; Proliferation of murine splenocytes, mitogen Con A 2.5 μg/ml (cpm ± DS) (Lactone 100 μg/ml): 147 ± 10 cpm; Proliferation of murine splenocytes, mitogen LPS 10 μg/ml (cpm ± DS) (Lactone 100 μg/ml): 614 ± 35 cpm; Proliferation of murine splenocytes, mitogen PHA 50 μg/ml (cpm ± DS) (Lactone 100 μg/ml): 19,500 cpm; Proliferation of murine splenocytes, mitogen a CD3 20 μg/ml (cpm ± DS) (Lactone 100 μg/ml): 285 ± 20 cpm; Inhibition of proliferation induced by ConA, antiCD3 and LPS [1]: clearly demonstrated its capacity for inhibiting proliferation; Inhibition of proliferation induced by PHA [1]: but not that induced by PHA; Proliferative effect per se on murine splenocytes (no mitogen, range 100-0.75 μg/ml, sample dissolved in DMSO at 40.0 mg/ml): No effect

Reference: patent publication US6818780B2, “P-hydroxyphenyl propionic acid derivatives as antiproliferative agents” (Consejo Superior de Investigaciones Cientificas, priority 2000, dated 2004)
